Data reported in the supplement of paper PMC10331698.
± gives the standard deviation of the averaged measurements.

Legend:
Assay in all cases: level (log10 ratio to DMSO vehicle control); higher = higher biomarker level / cell amount than vehicle control
[1] = compound: O=C(O)C=C(C(F)(F)F)C(F)(F)F [3,3-Bis(trifluoromethyl)-2-propenoic acid] (in DMSO)
Description: (§1)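 BioMAP Diversity Plus panel of 12 human primary cell co-culture systems (3C, 4H, LPS, SAg, BT, BF4T, BE3C, CASM3C, HDF3CGF, KF3CT, MyoF, Mphg). Compounds were added 1 h before stimulation and left for 24 h (MyoF 48 h; BT 72 h for soluble read-outs or 6 d for IgG). Biomarkers were read by ELISA, cytotoxicity by SRB, PBMC viability and proliferation by Alamar Blue. Each well value was divided by the mean of 8 DMSO control wells on the same plate and log10 transformed; duplicate blinded samples were tested at 4 concentrations.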

[2] = compound: O=C(O)C(F)(F)C(F)(F)C(F)(F)C(F)(F)C(F)(F)C(F)(F)C(F)(F)C(F)(F)C(F)(F)C(F)(F)F [Perfluoroundecanoic acid] (in DMSO); settings: 6700 nM
Description: as §1

[3] = compound: O=S(=O)(O)C(F)(F)C(F)(F)C(F)(F)C(F)(F)C(F)(F)C(F)(F)C(F)(F)F [Perfluoroheptanesulfonic acid] (in DMSO)
Description: as §1

[4] = compound: OCCC(F)(F)C(F)(F)C(F)(F)C(F)(F)F [4:2 Fluorotelomer alcohol] (in DMSO)
Description: as §1

[5] = compound: O=S(=O)(O)CCC(F)(F)C(F)(F)C(F)(F)C(F)(F)C(F)(F)C(F)(F)C(F)(F)C(F)(F)F [8:2 Fluorotelomer sulfonic acid] (in DMSO)
Description: as §1

[6] = compound: OCC(F)(F)OC(F)(F)C(F)(F)OC(F)(F)C(F)(F)OC(F)(F)CO [1H,1H,11H,11H-Perfluorotetraethylene glycol] (in DMSO)
Description: as §1

[7] = compound: CCOC(=O)CC(=O)C(F)(F)C(F)(F)F [Ethyl pentafluoropropionyl acetate] (in DMSO)
Description: as §1

Test System: KF3CT:IL-1alpha
- level (log10) ([1]; 6700 nM): -0.001 ± 0.0057
- level (log10) ([1]; 20000 nM): -0.016 ± 0.016
- level (log10) ([1]; 60000 nM): -0.0185 ± 0.032
- level (log10) [2]: -0.026 ± 0.011
- level (log10) ([3]; 1500 nM): -0.0015 ± 0.0035
- level (log10) ([3]; 4400 nM): 0.013 ± 0.0071
- level (log10) ([3]; 13000 nM): 0 ± 0.0028
- level (log10) ([3]; 40000 nM): 0.0095 ± 0.013
- level (log10) ([4]; 6700 nM): -0.0325 ± 0.018
- level (log10) ([4]; 20000 nM): -0.056 ± 0.098
- level (log10) ([4]; 60000 nM): -0.0665 ± 0.067
- level (log10) ([5]; 6700 nM): -0.041 ± 0.027
- level (log10) ([5]; 20000 nM): -0.137 ± 0.033
- level (log10) ([5]; 60000 nM): -0.0655 ± 0.046
- level (log10) ([6]; 6700 nM): 0.009 ± 0.018
- level (log10) ([6]; 20000 nM): 0.003 ± 0.037
- level (log10) ([6]; 60000 nM): 0.029 ± 0.034
- level (log10) ([7]; 6700 nM): -0.021 ± 0.011
- level (log10) ([7]; 20000 nM): -0.0345 ± 0.022
- level (log10) ([7]; 60000 nM): -0.001 ± 0.031

Test System: KF3CT:MMP-9
- level (log10) ([1]; 6700 nM): -0.029 ± 0.025
- level (log10) ([1]; 20000 nM): -0.031 ± 0.041
- level (log10) ([1]; 60000 nM): -0.078 ± 0.028
- level (log10) [2]: -0.172 ± 0.027
- level (log10) ([3]; 1500 nM): 0.0045 ± 0.025
- level (log10) ([3]; 4400 nM): -0.002 ± 0.0042
- level (log10) ([3]; 13000 nM): -0.01 ± 0.0042
- level (log10) ([3]; 40000 nM): 0.0345 ± 0.013
- level (log10) ([4]; 6700 nM): -0.033 ± 0.011
- level (log10) ([4]; 20000 nM): -0.0435 ± 0.028
- level (log10) ([4]; 60000 nM): 0.002 ± 0.034
- level (log10) ([5]; 6700 nM): -0.009 ± 0.0014
- level (log10) ([5]; 20000 nM): 0.0165 ± 0.0078
- level (log10) ([5]; 60000 nM): -0.0335 ± 0.018
- level (log10) ([6]; 6700 nM): 0.0225 ± 0.021
- level (log10) ([6]; 20000 nM): 0.062 ± 0.03
- level (log10) ([6]; 60000 nM): 0.0725 ± 0.0078
- level (log10) ([7]; 6700 nM): -0.0165 ± 0.013
- level (log10) ([7]; 20000 nM): -0.0005 ± 0.012
- level (log10) ([7]; 60000 nM): -0.011 ± 0.0099

Test System: KF3CT:PAI-I
- level (log10) ([1]; 6700 nM): 0.004 ± 0.013
- level (log10) ([1]; 20000 nM): 0.002 ± 0.013
- level (log10) ([1]; 60000 nM): -0.0055 ± 0.018
- level (log10) [2]: -0.11 ± 0.013
- level (log10) ([3]; 1500 nM): 0.001 ± 0.028
- level (log10) ([3]; 4400 nM): 0.002 ± 0.035
- level (log10) ([3]; 13000 nM): -0.01 ± 0.034
- level (log10) ([3]; 40000 nM): -0.034 ± 0.0099
- level (log10) ([4]; 6700 nM): -0.0355 ± 0.012
- level (log10) ([4]; 20000 nM): -0.073 ± 0.027
- level (log10) ([4]; 60000 nM): 0.041 ± 0.035
- level (log10) ([5]; 6700 nM): -0.0065 ± 0.022
- level (log10) ([5]; 20000 nM): -0.029 ± 0.014
- level (log10) ([5]; 60000 nM): -0.0255 ± 0.019
- level (log10) ([6]; 6700 nM): -0.003 ± 0.02
- level (log10) ([6]; 20000 nM): -0.0115 ± 0.0064
- level (log10) ([6]; 60000 nM): -0.033 ± 0.0042
- level (log10) ([7]; 6700 nM): -0.02 ± 0.023
- level (log10) ([7]; 20000 nM): -0.01 ± 0.035
- level (log10) ([7]; 60000 nM): -0.0055 ± 0.026

Test System: KF3CT:SRB
- level (log10) ([1]; 6700 nM): -0.0015 ± 0.0021
- level (log10) ([1]; 20000 nM): 0.003
- level (log10) ([1]; 60000 nM): 0.024 ± 0.0071
- level (log10) [2]: -0.0105 ± 0.0021
- level (log10) ([3]; 1500 nM): 0.0015 ± 0.005
- level (log10) ([3]; 4400 nM): -0.0015 ± 0.0064
- level (log10) ([3]; 13000 nM): -0.0005 ± 0.00071
- level (log10) ([3]; 40000 nM): -0.0005 ± 0.005
- level (log10) ([4]; 6700 nM): -0.009 ± 0.0071
- level (log10) ([4]; 20000 nM): -0.009 ± 0.013
- level (log10) ([4]; 60000 nM): -0.0025 ± 0.00071
- level (log10) ([5]; 6700 nM): -0.008 ± 0.0014
- level (log10) ([5]; 20000 nM): -0.0145 ± 0.0021
- level (log10) ([5]; 60000 nM): -0.004 ± 0.0071
- level (log10) ([6]; 6700 nM): -0.003 ± 0.014
- level (log10) ([6]; 20000 nM): 0.003 ± 0.0071
- level (log10) ([6]; 60000 nM): -0.012 ± 0.013
- level (log10) ([7]; 6700 nM): -0.002
- level (log10) ([7]; 20000 nM): 0.0005 ± 0.0035
- level (log10) ([7]; 60000 nM): -0.004 ± 0.0014

Test System: KF3CT:TIMP-2
- level (log10) ([1]; 6700 nM): 0.006 ± 0.048
- level (log10) ([1]; 20000 nM): -0.016 ± 0.021
- level (log10) ([1]; 60000 nM): 0.039 ± 0.052
- level (log10) [2]: 0.0125 ± 0.012
- level (log10) ([3]; 1500 nM): -0.0225 ± 0.013
- level (log10) ([3]; 4400 nM): -0.0035 ± 0.03
- level (log10) ([3]; 13000 nM): -0.0195 ± 0.016
- level (log10) ([3]; 40000 nM): 0.0105 ± 0.0021
- level (log10) ([4]; 6700 nM): -0.0185 ± 0.14
- level (log10) ([4]; 20000 nM): -0.0295 ± 0.074
- level (log10) ([4]; 60000 nM): 0.004 ± 0.054
- level (log10) ([5]; 6700 nM): -0.033 ± 0.0042
- level (log10) ([5]; 20000 nM): 0.0075 ± 0.0064
- level (log10) ([5]; 60000 nM): 0.0225 ± 0.0021
- level (log10) ([6]; 6700 nM): -0.008 ± 0.017
- level (log10) ([6]; 20000 nM): 0.023 ± 0.0085
- level (log10) ([6]; 60000 nM): 0.0295 ± 0.0092
- level (log10) ([7]; 6700 nM): 0.004 ± 0.011
- level (log10) ([7]; 20000 nM): -0.0105 ± 0.0078
- level (log10) ([7]; 60000 nM): 0.0175 ± 0.0035

Test System: KF3CT:uPA
- level (log10) ([1]; 6700 nM): 0.027 ± 0.02
- level (log10) ([1]; 20000 nM): 0.0275 ± 0.028
- level (log10) ([1]; 60000 nM): 0.0325 ± 0.0021
- level (log10) [2]: 0.0125 ± 0.018
- level (log10) ([3]; 1500 nM): 0.008
- level (log10) ([3]; 4400 nM): -0.0165 ± 0.00071
- level (log10) ([3]; 13000 nM): -0.0195 ± 0.005
- level (log10) ([3]; 40000 nM): -0.0055 ± 0.0021
- level (log10) ([4]; 6700 nM): -0.0105 ± 0.039
- level (log10) ([4]; 20000 nM): -0.0185 ± 0.0021
- level (log10) ([4]; 60000 nM): 0.017 ± 0.027
- level (log10) ([5]; 6700 nM): 0.007 ± 0.0042
- level (log10) ([5]; 20000 nM): 0.006 ± 0.024
- level (log10) ([5]; 60000 nM): 0.012 ± 0.016
- level (log10) ([6]; 6700 nM): 0.005 ± 0.0057
- level (log10) ([6]; 20000 nM): 0.018 ± 0.0099
- level (log10) ([6]; 60000 nM): 0.024 ± 0.031
- level (log10) ([7]; 6700 nM): 0.01 ± 0.018
- level (log10) ([7]; 20000 nM): 0.0095 ± 0.016
- level (log10) ([7]; 60000 nM): -0.006 ± 0.023

Test System: MyoF:CD106/VCAM-1
- level (log10) ([1]; 6700 nM): -0.0825 ± 0.00071
- level (log10) ([1]; 20000 nM): -0.145 ± 0.0021
- level (log10) ([1]; 60000 nM): -0.291 ± 0.04
- level (log10) [2]: -0.079 ± 0.018
- level (log10) ([3]; 1500 nM): -0.01 ± 0.0057
- level (log10) ([3]; 4400 nM): -0.0015 ± 0.005
- level (log10) ([3]; 13000 nM): -0.0055 ± 0.015
- level (log10) ([3]; 40000 nM): 0.0145 ± 0.0021
- level (log10) ([4]; 6700 nM): -0.0275 ± 0.0078
- level (log10) ([4]; 20000 nM): -0.024 ± 0.0042
- level (log10) ([4]; 60000 nM): -0.0225 ± 0.064
- level (log10) ([5]; 6700 nM): -0.0035 ± 0.0021
- level (log10) ([5]; 20000 nM): -0.0325 ± 0.016
- level (log10) ([5]; 60000 nM): -0.084 ± 0.02
- level (log10) ([6]; 6700 nM): 0.011 ± 0.0057
- level (log10) ([6]; 20000 nM): -0.012 ± 0.011
- level (log10) ([6]; 60000 nM): -0.0985 ± 0.05
- level (log10) ([7]; 6700 nM): -0.0125 ± 0.012
- level (log10) ([7]; 20000 nM): -0.012 ± 0.023
- level (log10) ([7]; 60000 nM): -0.0105 ± 0.021
